The values that follow come from ChEMBL document CHEMBL1201862, “PubChem BioAssay data set” (2004).

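1) Cells in 96-well plates. 2) Compound, 48 h, 5 concentrations. 3) Linear interpolation between surrounding doses. 4) Unreached endpoint = highest concentration. Abbreviation: GI50, concentration required for 50% inhibition of growth.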 Calls of active or inactive are those of the source. Rule as the data show it: active = GI50 up to about 1.1 µM and inactive = higher.

Some test systems named below: UACC-257; OVCAR-3; M14; CAKI-1; NCI-H226; SR; SW-620; HCT-116; SNB-19; TK-10; NCI-H460; CCRF-CEM; U-251; A549; KM12; Malme-3M; 786-0; SF-539.
Common to all, as to assay: inhibition of tumour cell growth, NCI panel, 48 h

Take `CC(=O)O[C@H]1CC[C@@]2(C)C(CC[C@]3(C)C2CC[C@]2(C)Oc4c(C)cc(O)cc4C[C@@H]23)C1(C)C` (stereo partly specified): the GI50 with UACC-257 was 8.47 µM (inactive); in the test on OVCAR-3, 11.7 µM (inactive); with M14 it was 11.9 µM (inactive); in the test with CAKI-1 it was 8.99 µM (inactive); in the test with NCI-H226 it was 15.9 µM (inactive); with SR it was 2.67 µM (inactive). The GI50 is 1.88 µM (inactive) in the test on SW-620; 5.27 µM (inactive) in the test on HCT-116; 4.24 µM (inactive) with SNB-19; 13.2 µM (inactive) in the test with TK-10; 4.11 µM (inactive) in the test with NCI-H460; 3.79 µM (inactive) in the test with CCRF-CEM. Besides, the GI50 in the test with U-251 is 2.71 µM (inactive); in the test with A549 it was 5.22 µM (inactive); in the test on KM12, 6.71 µM (inactive); in the test with Malme-3M, 10.1 µM (inactive); in the test on 786-0, 1.99 µM (inactive).
As for `CC[P+](C)(C)CC`, the GI50 with UACC-257, with OVCAR-3, with M14, in the test with SF-539, in the test with NCI-H226 and with SR was > 100 µM (inactive) in each case. Further, the GI50 with SW-620, in the test with HCT-116, in the test on SNB-19, in the test with TK-10, in the test on NCI-H460 and with CCRF-CEM was > 100 µM (inactive) in each case. The GI50 with U-251, with A549, with KM12, with Malme-3M and in the test on 786-0 was > 100 µM (inactive) each time.
On to `COc1c(C)c2c(c(C)c1Cl)Oc1c(C=O)c(O)c(Cl)c(C)c1C(=O)O2`, for which the GI50 with UACC-257 is 31.4 µM (inactive); in the test with OVCAR-3, 11.7 µM (inactive); in the test on M14, 20.9 µM (inactive); in the test with CAKI-1 it was 40.7 µM (inactive); with SF-539 it was 18.5 µM (inactive); in the test with NCI-H226 it was 28.7 µM (inactive). The GI50 in the test on SR was 27.5 µM (inactive); in the test with SW-620, 43.8 µM (inactive); in the test on HCT-116 it was 23 µM (inactive); in the test with TK-10, 31.8 µM (inactive); in the test on NCI-H460, 32.3 µM (inactive); in the test on CCRF-CEM it was 20.3 µM (inactive). Also, the GI50 in the test with U-251 is 20.3 µM (inactive); with A549, 33.7 µM (inactive); in the test with KM12, 31.8 µM (inactive); with Malme-3M, 23.2 µM (inactive); in the test with 786-0, 31 µM (inactive).
For `O=C1/C=C(/c2ccc(O)cc2)[C@@H](OC2OC(CO)C(O)C(O)C2O)Cc2ccc(O)cc2O1.O=C1/C=C(/c2ccc(O)cc2)[C@H](O)Cc2ccc(O[C@@H]3OC(CO)C(O)C(O)C3O)cc2O1` (stereo partly specified), the GI50 in the test with UACC-257, in the test with OVCAR-3, in the test with M14, with CAKI-1, in the test with SF-539 and in the test with NCI-H226 was > 100 µM (inactive) each time. Further, the GI50 in the test on SR is 1 µM (active); in the test on SW-620, > 100 µM (inactive); in the test with HCT-116, > 100 µM (inactive); in the test with SNB-19, > 100 µM (inactive); with TK-10, > 100 µM (inactive); with NCI-H460, > 100 µM (inactive). For the same molecule, the GI50 in the test with U-251, in the test on A549, with KM12, in the test with Malme-3M and in the test on 786-0 was > 100 µM (inactive) throughout.
Take `C[C@H](NC(=O)n1c2ccccc2c2ccccc21)C(=O)O`: the GI50 in the test on UACC-257, with OVCAR-3, in the test on CAKI-1, in the test on SF-539, with NCI-H226 and in the test with SR was > 100 µM (inactive) throughout. For the same molecule, the GI50 in the test on SW-620, in the test with HCT-116, with SNB-19, with TK-10, in the test on NCI-H460 and in the test with CCRF-CEM was > 100 µM (inactive) each time. Also, the GI50 in the test with U-251, in the test on A549, in the test with KM12, in the test with Malme-3M and with 786-0 was > 100 µM (inactive) each time.
Consider `CCOC(=O)C(=O)Nc1ccccc1C(F)(F)F`, for which the GI50 in the test with UACC-257, with OVCAR-3, in the test on M14, in the test on CAKI-1, in the test on SF-539 and with NCI-H226 was > 100 µM (inactive) in each case. Also, the GI50 was 2.39 µM (inactive) with SR; > 100 µM (inactive) in the test with SW-620; > 100 µM (inactive) with HCT-116; > 100 µM (inactive) in the test with SNB-19; > 100 µM (inactive) in the test on TK-10; > 100 µM (inactive) with NCI-H460. The GI50 in the test on U-251, in the test on A549, with KM12, with Malme-3M and in the test on 786-0 was > 100 µM (inactive) each time.
For the molecule `CC(C)=C1CCC(CN2CCCC2)C1=O` (stereo unspecified), the GI50 with UACC-257 was 24.7 µM (inactive); in the test with OVCAR-3, 17.4 µM (inactive); in the test with M14, 19.2 µM (inactive); in the test on CAKI-1, 13.7 µM (inactive); in the test on SF-539 it was 53.7 µM (inactive); with NCI-H226, > 100 µM (inactive). In addition, the GI50 in the test on SR was 15.8 µM (inactive); in the test on SW-620, 22.1 µM (inactive); in the test on HCT-116, 17.7 µM (inactive); in the test with SNB-19, > 100 µM (inactive); in the test with TK-10, 27.5 µM (inactive); in the test on NCI-H460, 58.7 µM (inactive). Also, the GI50 was 17.7 µM (inactive) with CCRF-CEM; > 100 µM (inactive) in the test on A549; 30.2 µM (inactive) in the test on KM12; 21.4 µM (inactive) in the test with Malme-3M; 16.9 µM (inactive) in the test on 786-0.
For the molecule `Cc1cn(C2CC(O)C(CO)O2)c(=O)n2nnnc12` (stereo unspecified), the GI50 in the test with UACC-257, with OVCAR-3, in the test on M14, in the test on SF-539, in the test with NCI-H226 and in the test on SR was > 100 µM (inactive) in each case. The GI50 in the test on SW-620, in the test on HCT-116, in the test with SNB-19, in the test with TK-10, in the test with NCI-H460 and in the test on CCRF-CEM was > 100 µM (inactive) each time. Moreover, the GI50 with U-251, in the test on A549, in the test on KM12, in the test with Malme-3M and in the test with 786-0 was > 100 µM (inactive) each time.
